Our source for the IC50 values is US20140179664A1, “Heterocyclyl Pyrimidine Analogues As JAK Inhibitors” (Cellzome Limited, priority 2011, published 2014).

Each structure is given as a SMILES string.

The target of assay [1] is T1, JAK1 (Homo sapiens, UniProt P23458).
T1 construct: endogenous in cells; host or cells: Molt4 (ATCC CRL-1582) and Ramos (ATCC CRL-1596), mixed lysate 1:2
Kind of assay: Kinobeads assay, JAK1. The format is binding. The note with it: mixed Molt4/Ramos lysate, read-out: Inhibition values (IC50) JAK1. In short, it runs like this: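 Mixed Molt4/Ramos cell lysate (1:2) was incubated 3 hours in the cold with kinobeads and a 9-step 1:3 compound dilution series. The no-compound control carried 2% DMSO. Bead-bound JAK1 was eluted, detected by antibody dot blot with infrared fluorescence, and IC50 derived from dose-response curves.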

Assay [2] has as its target T2, JAK2 (Homo sapiens, UniProt O60674).
T2 construct: endogenous in cells; host or cells: Molt4 (ATCC CRL-1582) and Ramos (ATCC CRL-1596), mixed lysate 1:2
In words: Kinobeads assay, JAK2. The assay is classed as binding. As to conditions: mixed Molt4/Ramos lysate, read-out: Inhibition values (IC50) JAK2. The method in brief:
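Mixed Molt4/Ramos lysate (1:2, 10 mg/mL protein) was incubated 3 h in the cold with the immobilized aminopyrido-pyrimidine affinity matrix and compound, 9-step 1:3 dilutions. Bead-bound kinases were eluted and quantified by antibody dot blot with infrared detection. IC50s are from dose-response curves.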

T1 sequence (P23458 whole entry): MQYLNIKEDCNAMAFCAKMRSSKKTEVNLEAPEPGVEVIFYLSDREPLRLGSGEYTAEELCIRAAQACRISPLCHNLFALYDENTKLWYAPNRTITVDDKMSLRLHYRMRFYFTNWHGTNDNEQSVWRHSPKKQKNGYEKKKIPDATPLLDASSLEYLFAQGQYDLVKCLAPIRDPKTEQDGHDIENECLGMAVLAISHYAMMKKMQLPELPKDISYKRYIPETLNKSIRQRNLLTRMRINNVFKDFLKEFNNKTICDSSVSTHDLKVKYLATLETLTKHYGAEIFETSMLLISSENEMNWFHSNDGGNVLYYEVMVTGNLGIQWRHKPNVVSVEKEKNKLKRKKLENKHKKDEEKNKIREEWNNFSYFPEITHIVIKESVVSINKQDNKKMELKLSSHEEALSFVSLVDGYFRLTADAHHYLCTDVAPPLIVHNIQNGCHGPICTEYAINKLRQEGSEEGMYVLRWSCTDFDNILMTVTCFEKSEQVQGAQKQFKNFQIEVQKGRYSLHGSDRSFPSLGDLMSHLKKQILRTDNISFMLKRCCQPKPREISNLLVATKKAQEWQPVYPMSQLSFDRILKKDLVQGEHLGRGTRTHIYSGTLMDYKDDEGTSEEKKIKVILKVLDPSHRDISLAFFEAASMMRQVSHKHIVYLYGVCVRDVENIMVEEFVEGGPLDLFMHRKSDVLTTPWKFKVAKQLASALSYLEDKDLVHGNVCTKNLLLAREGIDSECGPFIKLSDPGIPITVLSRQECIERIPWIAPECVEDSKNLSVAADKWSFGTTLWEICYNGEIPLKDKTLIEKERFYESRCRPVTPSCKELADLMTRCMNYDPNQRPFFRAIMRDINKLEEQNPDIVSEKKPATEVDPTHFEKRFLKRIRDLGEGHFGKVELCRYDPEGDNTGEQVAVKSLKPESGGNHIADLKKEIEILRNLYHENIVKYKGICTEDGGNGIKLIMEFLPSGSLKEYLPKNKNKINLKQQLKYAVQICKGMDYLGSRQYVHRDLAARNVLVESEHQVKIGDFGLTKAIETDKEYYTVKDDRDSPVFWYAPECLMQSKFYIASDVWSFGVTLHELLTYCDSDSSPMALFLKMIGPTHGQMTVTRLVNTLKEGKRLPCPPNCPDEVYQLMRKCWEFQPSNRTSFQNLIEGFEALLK
T2 sequence (O60674 whole entry): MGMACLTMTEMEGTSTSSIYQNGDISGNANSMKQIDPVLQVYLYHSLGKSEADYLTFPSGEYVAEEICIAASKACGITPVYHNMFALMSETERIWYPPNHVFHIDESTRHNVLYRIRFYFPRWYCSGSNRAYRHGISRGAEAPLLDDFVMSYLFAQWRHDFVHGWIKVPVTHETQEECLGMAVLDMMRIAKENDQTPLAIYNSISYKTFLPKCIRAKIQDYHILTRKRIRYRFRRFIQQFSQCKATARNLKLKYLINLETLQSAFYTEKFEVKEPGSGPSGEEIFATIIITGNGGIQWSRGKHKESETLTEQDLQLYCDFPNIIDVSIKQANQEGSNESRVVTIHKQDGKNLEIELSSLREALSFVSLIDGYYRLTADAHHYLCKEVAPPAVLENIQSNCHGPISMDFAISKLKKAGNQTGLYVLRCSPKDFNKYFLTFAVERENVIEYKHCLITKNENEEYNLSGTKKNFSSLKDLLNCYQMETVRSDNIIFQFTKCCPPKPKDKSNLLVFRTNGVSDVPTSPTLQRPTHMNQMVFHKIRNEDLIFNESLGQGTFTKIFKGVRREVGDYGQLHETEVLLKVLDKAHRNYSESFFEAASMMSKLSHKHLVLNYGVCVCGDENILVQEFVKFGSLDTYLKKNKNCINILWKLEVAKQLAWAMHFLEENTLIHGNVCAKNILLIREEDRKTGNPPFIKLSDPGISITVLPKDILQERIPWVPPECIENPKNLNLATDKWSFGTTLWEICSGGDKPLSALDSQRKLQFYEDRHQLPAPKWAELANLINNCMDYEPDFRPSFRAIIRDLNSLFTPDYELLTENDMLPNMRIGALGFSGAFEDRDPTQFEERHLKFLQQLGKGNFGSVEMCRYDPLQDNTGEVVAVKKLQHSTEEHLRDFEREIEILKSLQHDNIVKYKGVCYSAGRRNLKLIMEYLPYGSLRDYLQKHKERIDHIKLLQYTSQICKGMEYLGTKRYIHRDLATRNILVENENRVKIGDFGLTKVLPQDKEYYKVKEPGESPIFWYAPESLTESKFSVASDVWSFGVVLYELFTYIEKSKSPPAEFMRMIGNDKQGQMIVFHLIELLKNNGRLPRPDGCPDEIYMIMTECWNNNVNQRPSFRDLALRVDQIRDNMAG

In the case of `OCC[C@@H](Nc1nc(Nc2cnn(CCO)c2)ncc1Cl)c1ccccc1` [Compound 65], the IC50 in assay [1] lay within 1000 to 10000 nM; in assay [2], 1 to 10 µM.

On to `CNC(=O)Cn1cc(Nc2ncc(Cl)c(N[C@H](CCO)c3ccccc3)n2)cn1` [Compound 66], for which the IC50 in assay [1] fell in the range of 1000 to 10000 nM; in assay [2] it was 1 to 10 µM.

With `CC(C)NC(=O)Cn1cc(Nc2ncc(Cl)c(N[C@H](CO)c3ccccc3)n2)cn1` [Compound 67], the IC50 in assay [1] was 100 to 1000 nM; in assay [2], 1 to 10 µM.

Consider `O=C(Cn1cc(Nc2ncc(Cl)c(N[C@H](CO)c3ccccc3)n2)cn1)NC1CC1` [Compound 68], for which the IC50 in assay [1] is 100 to 1000 nM; in assay [2], 1 to 10 µM.

On to `Cn1cc(Nc2ncc(Cl)c(NC(CO)c3cccc(-c4cnn(C)c4)c3)n2)cn1` (stereo not drawn) [Compound 69], for which the IC50 is greater than 10000 nM in assay [1] and no less than 10 µM in assay [2].

In the case of `CN(CC#N)C(=O)Cn1cc(Nc2ncc(Cl)c(N[C@H](CO)c3ccccc3)n2)cn1` [Compound 70], the IC50 fell in the range of 100 to 1000 nM in assay [1] and 1 to 10 µM in assay [2].

Turning to `Cn1cc(Nc2ncc(Cl)c(NC(CO)c3ccc(F)cc3)n2)cn1` (stereo not drawn) [Compound 71], the figures for the IC50 in assay [1] and in assay [2] were 1000 to 10000 nM and no less than 10 µM, respectively.

Regarding `OCCn1cc(Nc2ncc(Cl)c(NC(CO)c3ccc(F)cc3)n2)cn1` (stereo not drawn) [Compound 72], the IC50 in assay [1] was 1000 to 10000 nM; in assay [2], no less than 10 µM.

Take `CC(C)(C(N)=O)n1cc(Nc2ncc(Cl)c(N[C@H](CO)c3ccccc3F)n2)cn1` [Compound 73]: the IC50 in assay [1] lay within 1000 to 10000 nM; in assay [2], 1 to 10 µM.

With `COc1ccccc1[C@@H](CO)Nc1nc(Nc2cnn(C)c2)ncc1Cl` [Compound 74], the IC50 lay in the range of 100 to 1000 nM in assay [1] and 1 to 10 µM in assay [2].

Regarding `OC[C@@H](Nc1nc(Nc2cn[nH]c2)ncc1Cl)c1ccccc1` [Compound 75], the IC50 in assay [1] was 1000 to 10000 nM; in assay [2], 1 to 10 µM.

As for `COc1ccccc1[C@@H](CO)Nc1nc(Nc2cnn(CCO)c2)ncc1Cl` [Compound 76], the IC50 in assay [1] is 100 to 1000 nM; in assay [2], 1 to 10 µM.

For `OCCn1cc(Nc2ncc(Cl)c(N[C@H](CO)c3ccccc3F)n2)cn1` [Compound 77], the IC50 in assay [1] lay in the range of 100 to 1000 nM; in assay [2], 1 to 10 µM.

For the compound `NC(=O)Cn1cc(Nc2ncc(Cl)c(N[C@H](CO)c3ccccc3F)n2)cn1` [Compound 78], the IC50 in assay [1] is less than 100 nM; in assay [2] it was 1 to 10 µM.

For `OC[C@@H](Nc1nc(Nc2cn[nH]c2)ncc1Cl)c1ccccc1F` [Compound 79], the IC50 in assay [1] was in the range of 100 to 1000 nM; in assay [2] it was 1 to 10 µM.

As for `OCCn1cc(Nc2ncc(Cl)c(N[C@H](CO)c3ccccn3)n2)cn1` [Compound 80], the values for the IC50 in assay [1] and in assay [2] were 100 to 1000 nM and 1 to 10 µM, respectively.

Consider `NC(=O)Cn1cc(Nc2ncc(Cl)c(N[C@H](CO)c3ccccn3)n2)cn1` [Compound 81], for which the IC50 lay in the range of 100 to 1000 nM in assay [1] and 1 to 10 µM in assay [2].

Take `COc1cccc([C@@H](CO)Nc2nc(Nc3cnn(C)c3)ncc2Cl)c1` [Compound 82]: the IC50 was 1000 to 10000 nM in assay [1] and no less than 10 µM in assay [2].

In the case of `COc1cccc([C@@H](CO)Nc2nc(Nc3cnn(CCO)c3)ncc2Cl)c1` [Compound 83], the IC50 in assay [1] was in the range of 1000 to 10000 nM; in assay [2] it was 1 to 10 µM.

With `COc1cccc([C@@H](CO)Nc2nc(Nc3cnn(CC(N)=O)c3)ncc2Cl)c1` [Compound 84], the IC50 in assay [1] was 1000 to 10000 nM; in assay [2], no less than 10 µM.

In the case of `Cc1cnc(Nc2cnn(CC(F)F)c2)nc1N[C@H](CO)c1cc(F)cc(F)c1` [Compound 167], the IC50 in assay [1] lay in the range of 1000 to 10000 nM; in assay [2], 1 to 10 µM.

As to `Cc1cnc(Nc2cnn(CC(F)F)c2)nc1NC(CO)c1c(F)cccc1F` (stereo not drawn) [Compound 168], the figures for the IC50 in assay [1] and in assay [2] were 1000 to 10000 nM and no less than 10 µM, respectively.

As for `Cc1cnc(Nc2cnn(CC(=O)N3CCOCC3)c2)nc1NC(CO)c1c(F)cccc1F` (stereo not drawn) [Compound 169], the figures for the IC50 in assay [1] and in assay [2] were 1000 to 10000 nM and 1 to 10 µM, respectively.

Consider `CNC(=O)Cn1cc(Nc2ncc(Cl)c(N[C@H](CO)c3cccnc3)n2)cn1` [Compound 170], for which the IC50 lay in the range of 1000 to 10000 nM in assay [1] and 1 to 10 µM in assay [2].
